Results from patent publication US10881653B2, “Tricyclic compounds and their use in the treatment of cancer” (The United States of America, as represented by the …, priority 2015, dated 2021).
Where a name gives a salt, the structure may show the parent alone.

Legend:
Test in all cases: Cell growth inhibition GI50
Assay type in all cases: cell-based
[1] = system: 786-0; settings: Homo sapiens, Renal Cancer
Experimental: (§1) Cell lines were plated 2000 cells/well in 96-well black optical plates in the presence of 10% FBS media containing 25 nM selenite. The following day cells were treated with various concentrations of the compound of Example 1 (0.1% DMSO final) and incubated for 72 hrs. After the incubation Cell-Quanti Blue reagent was added to each well and incubated for additional 3 hrs. Fluorescence was read ex:530 nm/em:590 nm, and percent of viability was determined using DMSO vehicle and no cell (blank) controls.
(§2) Further results obtained in similar experiments were as indicated below (GI50 refers to concentration of compound yielding 50% growth inhibition; E denotes an exponent to the base 10).

[2] = system: A498; settings: Homo sapiens, Renal Cancer
Experimental: as §1, §2

[3] = system: A549/ATCC; settings: Homo sapiens, Non-Small Cell Lung Cancer
Experimental: as §1, §2

[4] = system: ACHN; settings: Homo sapiens, Renal Cancer
Experimental: as §1, §2

[5] = system: BT-549; settings: Homo sapiens, Breast Cancer
Experimental: as §1, §2

[6] = system: CAKI-1; settings: Homo sapiens, Renal Cancer
Experimental: as §1, §2

[7] = system: CCRF-CEM; settings: Homo sapiens, Leukemia
Experimental: as §1, §2

[8] = system: COLO 205; settings: Homo sapiens, Colon Cancer
Experimental: as §1, §2

[9] = system: DU-145; settings: Homo sapiens, Prostate Cancer
Experimental: as §1, §2

[10] = system: EKVX; settings: Homo sapiens, Non-Small Cell Lung Cancer
Experimental: as §1, §2

[11] = system: HCC-2998; settings: Homo sapiens, Colon Cancer
Experimental: as §1, §2

[12] = system: HCT-116; settings: Homo sapiens, Colon Cancer
Experimental: as §1, §2

[13] = system: HL-60(TB); settings: Homo sapiens, Leukemia
Experimental: as §1, §2

[14] = system: HOP-92; settings: Homo sapiens, Non-Small Cell Lung Cancer
Experimental: as §1, §2

[15] = system: HS 5781; settings: Breast Cancer
Experimental: as §1, §2

[16] = system: HT29; settings: Homo sapiens, HT-29, Colon Cancer
Experimental: as §1, §2

[17] = system: K-562; settings: Homo sapiens, K562, Leukemia
Experimental: as §1, §2

[18] = system: LOX IMVI; settings: Homo sapiens, Melanoma
Experimental: as §1, §2

[19] = system: M14; settings: Homo sapiens, Melanoma
Experimental: as §1, §2

[20] = system: MALME-3M; settings: Homo sapiens, Melanoma
Experimental: as §1, §2

[21] = system: MCF7; settings: Homo sapiens, Breast Cancer
Experimental: as §1, §2

[22] = system: MDA-MB-231/ATCC; settings: Homo sapiens, Breast Cancer
Experimental: as §1, §2

[23] = system: MDA-MB-435; settings: Homo sapiens, Melanoma
Experimental: as §1, §2

[24] = system: MDA-N; settings: Homo sapiens, Melanoma
Experimental: as §1, §2

[25] = system: MOLT-4; settings: Homo sapiens, Leukemia
Experimental: as §1, §2

[26] = system: NCI-H226; settings: Homo sapiens, Non-Small Cell Lung Cancer
Experimental: as §1, §2

[27] = system: NCI-H23; settings: Homo sapiens, Non-Small Cell Lung Cancer
Experimental: as §1, §2

[28] = system: NCI-H322M; settings: Homo sapiens, Non-Small Cell Lung Cancer
Experimental: as §1, §2

[29] = system: NCI-H460; settings: Homo sapiens, Non-Small Cell Lung Cancer
Experimental: as §1, §2

[30] = system: NCI-H522; settings: Homo sapiens, Non-Small Cell Lung Cancer
Experimental: as §1, §2

[31] = system: NCI/ADR-RES; settings: Homo sapiens, Ovarian Cancer
Experimental: as §1, §2

[32] = system: OVCAR-4; settings: Homo sapiens, Ovarian Cancer
Experimental: as §1, §2

[33] = system: OVCAR-8; settings: Homo sapiens, Ovarian Cancer
Experimental: as §1, §2

[34] = system: PC-3; settings: Homo sapiens, Prostate Cancer
Experimental: as §1, §2

[35] = system: RPMI-8226; settings: Homo sapiens, Leukemia
Experimental: as §1, §2

[36] = system: RXF 393; settings: Homo sapiens, Renal Cancer
Experimental: as §1, §2

[37] = system: SF-268; settings: Homo sapiens, CNS Cancer
Experimental: as §1, §2

[38] = system: SF-539; settings: Homo sapiens, CNS Cancer
Experimental: as §1, §2

[39] = system: SK-MEL-28; settings: Homo sapiens, Melanoma
Experimental: as §1, §2

[40] = system: SK-MEL-2; settings: Homo sapiens, Melanoma
Experimental: as §1, §2

[41] = system: SK-MEL-5; settings: Homo sapiens, Melanoma
Experimental: as §1, §2

[42] = system: SK-OV-3; settings: Homo sapiens, Ovarian Cancer
Experimental: as §1, §2

[43] = system: SN12C; settings: Homo sapiens, Renal Cancer
Experimental: as §1, §2

[44] = system: SNB-19; settings: Homo sapiens, CNS Cancer
Experimental: as §1, §2

[45] = system: SNB-75; settings: Homo sapiens, CNS Cancer
Experimental: as §1, §2

[46] = system: SR; settings: Homo sapiens, Leukemia
Experimental: as §1, §2

[47] = system: T-47D; settings: Homo sapiens, T47D, Breast Cancer
Experimental: as §1, §2

[48] = system: UACC-257; settings: Homo sapiens, Melanoma
Experimental: as §1, §2

[49] = system: UACC-62; settings: Homo sapiens, Melanoma
Experimental: as §1, §2

[50] = system: UO-31; settings: Homo sapiens, Renal Cancer
Experimental: as §1, §2

## O=C1C=C[C@H]2[C@@H]3C(=O)N(c4ccccc4)C(=O)[C@@H]3[C@@H]1N2Cc1ccccc1 (relative stereo) [Example 1, exo-11-Benzyl-4-phenyl-4,11-diazatricyclo[5.3.1.0^2,6]undec-9-ene-3,5,8-trione Trifluoroacetate]
[1]
  GI50: 1690 nM
[2]
  GI50: 8.57 µM
[3]
  GI50: 14.9 µM
[4]
  GI50: 3.36 µM
[5]
  GI50: 3.45 µM
[6]
  GI50: 4.09 µM
[7]
  GI50: 942 nM
[8]
  GI50: 5.47 µM
[9]
  GI50: 9.66 µM
[10]
  GI50: 7.78 µM
[11]
  GI50: 7.94 µM
[12]
  GI50: 1560 nM
[13]
  GI50: 1170 nM
[14]
  GI50: 3.66 µM
[15]
  GI50: 3.51 µM
[16]
  GI50: 1790 nM
[17]
  GI50: 1670 nM
[18]
  GI50: 1610 nM
[19]
  GI50: 2600 nM
[20]
  GI50: 4.62 µM
[21]
  GI50: 3.19 µM
[22]
  GI50: 5.45 µM
[23]
  GI50: 2720 nM
[24]
  GI50: 3.14 µM
[25]
  GI50: 1720 nM
[26]
  GI50: 7.26 µM
[27]
  GI50: 5.37 µM
[28]
  GI50: 10.2 µM
[29]
  GI50: 3.49 µM
[30]
  GI50: 2680 nM
[31]
  GI50: 2550 nM
[32]
  GI50: 5.53 µM
[33]
  GI50: 2880 nM
[34]
  GI50: 4.68 µM
[35]
  GI50: 1590 nM
[36]
  GI50: 2420 nM
[37]
  GI50: 3.34 µM
[38]
  GI50: 1660 nM
[39]
  GI50: 3.01 µM
[40]
  GI50: 4.37 µM
[41]
  GI50: 3.56 µM
[42]
  GI50: 13.2 µM
[43]
  GI50: 1640 nM
[44]
  GI50: 6.04 µM
[45]
  GI50: 4.19 µM
[46]
  GI50: 1870 nM
[47]
  GI50: 4.92 µM
[48]
  GI50: 3.22 µM
[49]
  GI50: 2010 nM
[50]
  GI50: 3.42 µM
